Read-outs that look alike come from different tables or passages of the source.
Columns and labels:
HIV1 strain NL4-3 = format: cell-based; conditions: normalized mean of HIV1 replication readout
HCV replicon = format: cell-based; conditions: normalized mean of HCV replicon readout
[1] = test system: F. novicida (strain U112); format: cell-based
influenza A H1N1 virus = conditions: 48 hr post-treatment, A549
EBV = conditions: normalized mean of EBV replication readout

Substance	HIV1 Norm MEAN (HIV1 strain NL4-3; peptide screen)	HCV Norm MEAN (HCV replicon; peptide screen)	Francisella novicida Norm AUC [1]	Neuraminidase activity normalized to vehicle (influenza A H1N1 virus; 200 µM peptide)	Neuraminidase activity normalized to vehicle (influenza A H1N1 virus; 0,823 µM peptide)	Neuraminidase activity normalized to vehicle (influenza A H1N1 virus; 22,2 µM peptide)	Neuraminidase activity normalized to vehicle (influenza A H1N1 virus; 2,4691 µM peptide)	Neuraminidase activity normalized to vehicle (influenza A H1N1 virus; 7,4074 µM peptide)	Neuraminidase activity normalized to vehicle (influenza A H1N1 virus; 66,6667 µM peptide)	EBV Norm MEAN (EBV; peptide screen)	HIV1 Norm MEAN (HIV1 strain NL4-3)	HCV Norm MEAN (HCV replicon)	EBV Norm MEAN (EBV)
SLQYLALAALITPKK [CPEP46]	2.169	0.6647	0.3644	0,1529	0,9309	0,9118	1,043	1,0188	0,8482	0.9835			
PTAPP [CPEP49]			1.057	0,7922	0,6686	0,8389	0,6943	0,7716	0,9061		1.171	0.1885	0.9513
QRRGRTGRG [CPEP40]			1.732	0,9281	1,0647	1,004	0,9944	1,0761	0,9318		0.4037	0.7133	0.7195
RRPSRPFRK [CPEP88]			1.028	0,55	0,9984	0,7716	0,8217	0,8463	0,6969		0.3045	0.6746	0.9654
EVLADNLPPP [CPEP90]			1.209	0,7518	0,9901	0,7822	0,9469	0,8328	0,7316		0.8397	1.163	1.561
GRPPLPPKQK [CPEP41]			0.9976	0,8561	1,0727	0,912	0,9209	0,9892	0,8347		0.6258	0.9259	0.7591
GGKWSKLS [CPEP134]			1.142	0,426	0,9416	0,8116	0,8887	0,9196	0,7036		1.139	0.2388	0.3842
CPEP83: peptide of the viral peptide library; sequence page not shown (LHGLSAFSLHSYS)			1.204	0,249	0,6779	0,9424	0,9223	0,934	0,7894		3.012	0.4141	0.5883
DDLYEEV [CPEP111]			0.6875	0,7987	0,9384	0,8898	0,8026	0,8887	0,8909		0.957	0.2545	0.5736
SAPCLLKLSTTLLCLEI [CPEP124]	14.9843	1.253	0.6911	0,1059	1,0611	0,6181	0,9657	1,0354	0,1507	0.5543			
MAGRSGDSDEELIR [CPEP91]	0.2767	0.7752	1.031	0,8049	0,8065	0,8658	0,8956	0,8592	0,8689	0.5729			
